Values after ≈ are worked out from the molar mass of the structure shown. Like-named read-outs stand apart in the source and are kept apart here.
How the values were obtained:
Assay type in all cases: cell-based
[1] = system: Plasmodium falciparum clone CDC/Indochina III (W-2); test: In vitro antimalarial [3H]-hypoxanthine incorporation serial dilution assay, W2; conditions: Plasmodium falciparum; P. falciparum W2, 72 hours exposure
Method in brief: (§1)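 IC50 came from logistic fitting of eleven two-fold compound dilutions, read as [3H]-hypoxanthine uptake into parasite DNA relative to untreated infected wells after 72 h. Parasites were grown in A+ human erythrocytes (6%) in RPMI-1640 with plasma or ALBUMAX at 37° C, 5% CO2, 5% O2.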

[2] = system: Plasmodium falciparum clone CDC/Sierra Leone I (D-6); test: In vitro antimalarial [3H]-hypoxanthine incorporation serial dilution assay, D6; conditions: Plasmodium falciparum, D6, 72 h, P. falciparum D6, 72 hours exposure
Method in brief: as §1

[3] = system: Plasmodium falciparum TM91C235; test: In vitro antimalarial [3H]-hypoxanthine incorporation assay, TM91C235; conditions: Plasmodium falciparum; P. falciparum TM91C235 (multiple drug resistant isolate), 72 hours exposure
Method in brief: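 Growth was read by [3H]-hypoxanthine incorporation after 72 h total incubation, as CPM normalized to the mean of untreated infected controls. Erythrocytic-stage TM91C235 (0.4% parasitemia, 1% hematocrit, ALBUMAX medium without folate or PABA, 5% O2/5% CO2, 37° C) was first exposed 48 h to compound at three levels, 25–25,000 ng/ml, in duplicate.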

[4] = compared with azithromycin, read-out: IC50 D6 (class symbol)

IC50 [1] [µg/mL]	IC50 ([2]; read-out: IC50 D6) [µg/mL]	IC50 [3] [µg/mL]	IC50 [2, 4] [µg/mL]	SMILES
0.102 (≈ 0.107 µM)	0.284 (≈ 0.298 µM)	0.275 (≈ 0.288 µM)	–	CC[C@H]1OC(=O)[C@H](C)[C@@H](O[C@H]2C[C@@](C)(OC)[C@@H](O)[C@H](C)O2)[C@H](C)[C@@H](O[C@@H]2O[C@H](C)C[C@H](N(C)C)[C@H]2O)[C@](C)(O)C[C@@H](C)CN(CCCNC(=S)NC(=O)c2ccccc2)[C@H](C)[C@@H](O)[C@]1(C)O [Example 100]
0.0919 (≈ 0.0962 µM)	0.425 (≈ 0.445 µM)	0.24 (≈ 0.252 µM)	–	CCc1ccccc1NC(=S)NCCCN1C[C@H](C)C[C@@](C)(O)[C@H](O[C@@H]2O[C@H](C)C[C@H](N(C)C)[C@H]2O)[C@@H](C)[C@H](O[C@H]2C[C@@](C)(OC)[C@@H](O)[C@H](C)O2)[C@@H](C)C(=O)O[C@H](CC)[C@@](C)(O)[C@H](O)[C@H]1C [Example 101]
0.0737 (≈ 0.077 µM)	0.46 (≈ 0.48 µM)	0.201 (≈ 0.209 µM)	–	CC[C@H]1OC(=O)[C@H](C)[C@@H](O[C@H]2C[C@@](C)(OC)[C@@H](O)[C@H](C)O2)[C@H](C)[C@@H](O[C@@H]2O[C@H](C)C[C@H](N(C)C)[C@H]2O)[C@](C)(O)C[C@@H](C)CN(CCCNC(=S)Nc2ccc(OC)cc2)[C@H](C)[C@@H](O)[C@]1(C)O [Example 102]
0.0514 (≈ 0.0534 µM)	0.18 (≈ 0.188 µM)	0.103 (≈ 0.108 µM)	–	CC[C@H]1OC(=O)[C@H](C)[C@@H](O[C@H]2C[C@@](C)(OC)[C@@H](O)[C@H](C)O2)[C@H](C)[C@@H](O[C@@H]2O[C@H](C)C[C@H](N(C)C)[C@H]2O)[C@](C)(O)C[C@@H](C)CN(CCCNC(=S)Nc2ccc(Cl)cc2)[C@H](C)[C@@H](O)[C@]1(C)O [Example 103]
0.0831 (≈ 0.0863 µM)	0.49 (≈ 0.509 µM)	0.181 (≈ 0.188 µM)	–	CC[C@H]1OC(=O)[C@H](C)[C@@H](O[C@H]2C[C@@](C)(OC)[C@@H](O)[C@H](C)O2)[C@H](C)[C@@H](O[C@@H]2O[C@H](C)C[C@H](N(C)C)[C@H]2O)[C@](C)(O)C[C@@H](C)CN(CCCNC(=S)Nc2c(F)cccc2F)[C@H](C)[C@@H](O)[C@]1(C)O [Example 104]
0.0201 (≈ 0.0207 µM)	0.0184 (≈ 0.0189 µM)	0.0237 (≈ 0.0244 µM)	–	CC[C@H]1OC(=O)[C@H](C)[C@@H](O[C@H]2C[C@@](C)(OC)[C@@H](O)[C@H](C)O2)[C@H](C)[C@@H](O[C@@H]2O[C@H](C)C[C@H](N(C)C)[C@H]2O)[C@](C)(O)C[C@@H](C)CN(CCCNC(=S)Nc2ccc([N+](=O)[O-])cc2)[C@H](C)[C@@H](O)[C@]1(C)O [Example 105]
0.0626 (≈ 0.063 µM)	0.215 (≈ 0.216 µM)	0.12 (≈ 0.121 µM)	–	CC[C@H]1OC(=O)[C@H](C)[C@@H](O[C@H]2C[C@@](C)(OC)[C@@H](O)[C@H](C)O2)[C@H](C)[C@@H](O[C@@H]2O[C@H](C)C[C@H](N(C)C)[C@H]2O)[C@](C)(O)C[C@@H](C)CN(CCCNC(=S)Nc2ccc(OC(F)F)cc2)[C@H](C)[C@@H](O)[C@]1(C)O [Example 106]
0.19 (≈ 0.202 µM)	0.843 (≈ 0.898 µM)	0.332 (≈ 0.354 µM)	–	CC[C@H]1OC(=O)[C@H](C)[C@@H](O[C@H]2C[C@@](C)(OC)[C@@H](O)[C@H](C)O2)[C@H](C)[C@@H](O[C@@H]2O[C@H](C)C[C@H](N(C)C)[C@H]2O)[C@](C)(O)C[C@@H](C)CN(CCCNC(=S)NCCCSC)[C@H](C)[C@@H](O)[C@]1(C)O [Example 109]
0.0461	0.247	0.111	–	CC[C@H]1OC(=O)[C@H](C)[C@@H](O[C@H]2C[C@@](C)(OC)[C@@H](O)[C@H](C)O2)[C@H](C)[C@@H](O[C@@H]2O[C@H](C)C[C@H](N(C)C)[C@H]2O)[C@](C)(O)C[C@@H](C)CN(CCCNC(=S)Nc2ccc(C3CC4CCC3C4)cc2)[C@H](C)[C@@H](O)[C@]1(C)O.O=CO (stereo partly drawn) [Example 110]
0.246 (≈ 0.276 µM)	–	0.459 (≈ 0.514 µM)	> 0.797	C=CCNC(=S)NCCCN1C[C@H](C)C[C@@](C)(O)[C@H](O[C@@H]2O[C@H](C)C[C@H](N(C)C)[C@H]2O)[C@@H](C)[C@H](O[C@H]2C[C@@](C)(OC)[C@@H](O)[C@H](C)O2)[C@@H](C)C(=O)O[C@H](CC)[C@@](C)(O)[C@H](O)[C@H]1C [Example 111]
0.0709 (≈ 0.0709 µM)	0.121 (≈ 0.121 µM)	0.107 (≈ 0.107 µM)	–	CCOC(=O)c1ccc(NC(=S)NCCCN2C[C@H](C)C[C@@](C)(O)[C@H](O[C@@H]3O[C@H](C)C[C@H](N(C)C)[C@H]3O)[C@@H](C)[C@H](O[C@H]3C[C@@](C)(OC)[C@@H](O)[C@H](C)O3)[C@@H](C)C(=O)O[C@H](CC)[C@@](C)(O)[C@H](O)[C@H]2C)cc1 [Example 112]
0.605 (≈ 0.679 µM)	–	0.866 (≈ 0.972 µM)	> 0.797	CC[C@H]1OC(=O)[C@H](C)[C@@H](O[C@H]2C[C@@](C)(OC)[C@@H](O)[C@H](C)O2)[C@H](C)[C@@H](O[C@@H]2O[C@H](C)C[C@H](N(C)C)[C@H]2O)[C@](C)(O)C[C@@H](C)CN(CCCNC(=S)NC2CC2)[C@H](C)[C@@H](O)[C@]1(C)O [Example 113]
0.714	0.799	0.312	–	CC[C@H]1OC(=O)[C@H](C)[C@@H](O[C@H]2C[C@@](C)(OC)[C@@H](O)[C@H](C)O2)[C@H](C)[C@@H](O[C@@H]2O[C@H](C)C[C@H](N(C)C)[C@H]2O)[C@](C)(O)C[C@@H](C)CN(CCCNC(=S)Nc2ccc(N(CC)CC)cc2)[C@H](C)[C@@H](O)[C@]1(C)O.O=CO [Example 121]
0.297	0.7	0.137	–	CC[C@H]1OC(=O)[C@H](C)[C@@H](O[C@H]2C[C@@](C)(OC)[C@@H](O)[C@H](C)O2)[C@H](C)[C@@H](O[C@@H]2O[C@H](C)C[C@H](N(C)C)[C@H]2O)[C@](C)(O)C[C@@H](C)CN(CCCNC(=S)N[C@H]2CCCC[C@@H]2OCc2ccccc2)[C@H](C)[C@@H](O)[C@]1(C)O.O=CO [Example 123]
0.0575 (≈ 0.0558 µM)	0.0559 (≈ 0.0543 µM)	0.0122 (≈ 0.0118 µM)	–	CC[C@H]1OC(=O)[C@H](C)[C@@H](O[C@H]2C[C@@](C)(OC)[C@@H](O)[C@H](C)O2)[C@H](C)[C@@H](O[C@@H]2O[C@H](C)C[C@H](N(C)C)[C@H]2O)[C@](C)(O)C[C@@H](C)CN(CCCNC(=S)Nc2ccc(Cl)c(C(F)(F)F)c2)[C@H](C)[C@@H](O)[C@]1(C)O [Example 124]
0.0422	0.142	0.0364	–	CC[C@H]1OC(=O)[C@H](C)[C@@H](O[C@H]2C[C@@](C)(OC)[C@@H](O)[C@H](C)O2)[C@H](C)[C@@H](O[C@@H]2O[C@H](C)C[C@H](N(C)C)[C@H]2O)[C@](C)(O)C[C@@H](C)CN(CCCNC(=S)NC(c2ccccc2)(c2ccccc2)c2ccccc2)[C@H](C)[C@@H](O)[C@]1(C)O.O=CO [Example 125]
0.117 (≈ 0.114 µM)	0.06 (≈ 0.0581 µM)	0.0571 (≈ 0.0553 µM)	–	CC[C@H]1OC(=O)[C@H](C)[C@@H](O[C@H]2C[C@@](C)(OC)[C@@H](O)[C@H](C)O2)[C@H](C)[C@@H](O[C@@H]2O[C@H](C)C[C@H](N(C)C)[C@H]2O)[C@](C)(O)C[C@@H](C)CN(CCCNC(=S)Nc2cc(-c3ccccc3)ccc2OC)[C@H](C)[C@@H](O)[C@]1(C)O [Example 127]
0.207 (≈ 0.21 µM)	0.545 (≈ 0.553 µM)	0.15 (≈ 0.152 µM)	–	CC[C@H]1OC(=O)[C@H](C)[C@@H](O[C@H]2C[C@@](C)(OC)[C@@H](O)[C@H](C)O2)[C@H](C)[C@@H](O[C@@H]2O[C@H](C)C[C@H](N(C)C)[C@H]2O)[C@](C)(O)C[C@@H](C)CN(CCCNC(=S)NC23CC4CC(CC(C4)C2)C3)[C@H](C)[C@@H](O)[C@]1(C)O [Example 130]
0.198	0.507	0.115	–	CC[C@H]1OC(=O)[C@H](C)[C@@H](O[C@H]2C[C@@](C)(OC)[C@@H](O)[C@H](C)O2)[C@H](C)[C@@H](O[C@@H]2O[C@H](C)C[C@H](N(C)C)[C@H]2O)[C@](C)(O)C[C@@H](C)CN(CCCNC(=S)Nc2cccc(F)c2)[C@H](C)[C@@H](O)[C@]1(C)O.O=CO [Example 131]
0.229 (≈ 0.229 µM)	0.295 (≈ 0.296 µM)	0.0839 (≈ 0.0842 µM)	–	CC[C@H]1OC(=O)[C@H](C)[C@@H](O[C@H]2C[C@@](C)(OC)[C@@H](O)[C@H](C)O2)[C@H](C)[C@@H](O[C@@H]2O[C@H](C)C[C@H](N(C)C)[C@H]2O)[C@](C)(O)C[C@@H](C)CN(CCCNC(=S)Nc2ccc(Cl)c(Cl)c2)[C@H](C)[C@@H](O)[C@]1(C)O [Example 132]
0.162 (≈ 0.165 µM)	0.441 (≈ 0.449 µM)	0.0723 (≈ 0.0737 µM)	–	CC[C@H]1OC(=O)[C@H](C)[C@@H](O[C@H]2C[C@@](C)(OC)[C@@H](O)[C@H](C)O2)[C@H](C)[C@@H](O[C@@H]2O[C@H](C)C[C@H](N(C)C)[C@H]2O)[C@](C)(O)C[C@@H](C)CN(CCCNC(=S)Nc2ccc(F)c(F)c2F)[C@H](C)[C@@H](O)[C@]1(C)O [Example 133]
0.279	0.398	0.0997	–	CC[C@H]1OC(=O)[C@H](C)[C@@H](O[C@H]2C[C@@](C)(OC)[C@@H](O)[C@H](C)O2)[C@H](C)[C@@H](O[C@@H]2O[C@H](C)C[C@H](N(C)C)[C@H]2O)[C@](C)(O)C[C@@H](C)CN(CCCNC(=S)Nc2ccc(OC(F)F)cc2)[C@H](C)[C@@H](O)[C@]1(C)O.O=CO [Example 134]
0.396	0.978	0.121	–	CC[C@H]1OC(=O)[C@H](C)[C@@H](O[C@H]2C[C@@](C)(OC)[C@@H](O)[C@H](C)O2)[C@H](C)[C@@H](O[C@@H]2O[C@H](C)C[C@H](N(C)C)[C@H]2O)[C@](C)(O)C[C@@H](C)CN(CCCNC(=S)Nc2ccccc2F)[C@H](C)[C@@H](O)[C@]1(C)O.O=CO [Example 136]

Source: patent US20080200404A1, “Novel Antimalarial 9A-Carbamoyl-Aminoalkyl and 9A-Thiocarbamoyl-Aminoalkyl Azalides” (priority 2005, published 2008)
